Test results taken from US12209102B2, “Heterocyclic compounds and uses thereof” (Kumquat Biosciences Inc., priority 2022, dated 2025).

Experiments:
K-Ras WT = target: T1, K-Ras WT (Homo sapiens, UniProt P01116); assay: HTRF resonance energy transfer assay, K-Ras WT / SOS1 interaction; type: biochemical; settings: HTRF assay of Example 5; read-out: IC50 against K-Ras WT
T1 construct: made in house; host or cells: E. coli BL21 (DE3)
Procedure, shortened: (§1)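 Buffer about 5 mM HEPES pH 7.4 with ~150 mM NaCl, ~1 mM DTT, 0.05% BSA, 0.0025% (v/v) Igepal. Protein constructs used at molarity matching the IC50 range studied (e.g. ~500 nM). FRET between tagged K-Ras and hSOS1 measured after short incubation.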

K-Ras G12V = target: T2, K-Ras G12V (Homo sapiens, UniProt P01116, G12V); assay: HTRF resonance energy transfer assay, K-Ras G12V / SOS1 interaction; type: biochemical; settings: HTRF assay of Example 5; read-out: IC50 against K-Ras G12V
T2 construct: made in house; host or cells: E. coli BL21 (DE3)
Procedure, shortened: as §1

GP2D cells = assay: Ras cellular assay, growth of cells with K-Ras G12D mutation (CellTiter-Glo); type: cell-based; settings: cell growth, Example 9, G12D mutation, read-out: IC50 against GP2D cells
K-Ras G12D = target: T3, K-Ras G12D (Homo sapiens, UniProt P01116, G12D); assay: HTRF resonance energy transfer assay, K-Ras G12D / SOS1 interaction; type: biochemical; settings: HTRF assay of Example 5; read-out: IC50 against K-Ras G12D
T3 construct: made in house; host or cells: E. coli BL21 (DE3)
Procedure, shortened: as §1

K-Ras G12S = target: T4, K-Ras G12S (Homo sapiens, UniProt P01116, G12S); assay: HTRF resonance energy transfer assay, K-Ras G12S / SOS1 interaction; type: biochemical; settings: HTRF assay of Example 5; read-out: IC50 against K-Ras G12S
T4 construct: made in house; host or cells: E. coli BL21 (DE3)
Procedure, shortened: as §1

SW620 cells = assay: Ras cellular assay, growth of cells with K-Ras G12V mutation (CellTiter-Glo); type: cell-based; settings: Homo sapiens, SW-620; cell growth, Example 9, G12V mutation; read-out: IC50 against SW620 cells
Procedure, shortened: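 IC50 values came from a four-parameter fit of CellTiter-Glo viability, read roughly 6 days after dosing with e.g. a 10-point threefold dilution series. G12V-mutant SW620 cells (e.g. 800 per well) had been plated the previous day in RPMI-1640/10% heat-inactivated FBS, on tissue culture-treated or ultra-low attachment plates.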

A549 cells = assay: Ras cellular assay, growth of cells with K-Ras G12S mutation (CellTiter-Glo); type: cell-based; settings: Homo sapiens, cell growth, Example 9, G12S mutation, read-out: IC50 against A549 cells
Procedure, shortened: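 Growth inhibition IC50 values come from four-parameter fits of CellTiter-Glo luminescence, read about 6 days after compound addition. G12S-mutant A549 cells (e.g. 800/well, RPMI-1640 + 10% heat-inactivated FBS) were plated in tissue-culture-treated or ultra-low-attachment 384-well format. Dosing began the following day with serial dilutions, e.g. 10 points, 3-fold.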

T4 sequence (P01116 1-188 isoform P01116-2 G12S): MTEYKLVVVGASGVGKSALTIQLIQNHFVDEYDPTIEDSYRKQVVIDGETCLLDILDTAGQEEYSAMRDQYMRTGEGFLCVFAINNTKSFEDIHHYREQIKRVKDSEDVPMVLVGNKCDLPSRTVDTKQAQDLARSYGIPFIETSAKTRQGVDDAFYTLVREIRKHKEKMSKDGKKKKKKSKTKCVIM
T2 sequence (P01116 1-188 isoform P01116-2 G12V): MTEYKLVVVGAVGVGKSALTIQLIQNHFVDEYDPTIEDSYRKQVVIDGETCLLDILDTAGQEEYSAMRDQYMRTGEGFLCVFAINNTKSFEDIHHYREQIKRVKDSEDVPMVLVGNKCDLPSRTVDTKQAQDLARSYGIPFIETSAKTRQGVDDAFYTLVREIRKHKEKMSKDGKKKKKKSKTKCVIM
T1 sequence (P01116 1-188 isoform P01116-2): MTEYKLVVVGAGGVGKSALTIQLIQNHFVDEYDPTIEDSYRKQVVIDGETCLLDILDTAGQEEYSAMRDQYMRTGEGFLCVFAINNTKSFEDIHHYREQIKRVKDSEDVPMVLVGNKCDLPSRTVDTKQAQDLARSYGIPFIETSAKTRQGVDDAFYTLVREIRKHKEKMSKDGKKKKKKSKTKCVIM
T3 sequence (P01116 1-188 isoform P01116-2 G12D): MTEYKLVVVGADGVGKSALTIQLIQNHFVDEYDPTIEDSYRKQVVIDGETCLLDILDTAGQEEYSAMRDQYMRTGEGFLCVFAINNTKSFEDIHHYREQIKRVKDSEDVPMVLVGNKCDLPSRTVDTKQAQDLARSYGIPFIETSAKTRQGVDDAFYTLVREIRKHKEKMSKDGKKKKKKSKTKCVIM

IC50 (K-Ras WT) [nM]	IC50 (K-Ras G12V) [nM]	IC50 (K-Ras G12D) [nM]	IC50 (K-Ras G12S) [nM]	IC50 (SW620 cells) [nM]	IC50 (A549 cells) [nM]	Structure (SMILES)	IC50 (GP2D cells) [nM]
< 100	< 100	< 100	< 100			C=C(C)[C@H]1COc2c(Cl)c(-c3ccc(F)c4sc(N)c(C#N)c34)c(F)c3nc(OC[C@@]45CCCN4C[C@H](F)C5)nc(c23)N1CC(F)F [Compound 879, 2-amino-4-((5S)-8-chloro-4-(2,2-difluoroethyl)-10-fluoro-2-(((2R,7aS)-2-fluorotetrahydro-1H-pyrrolizin-7a(5H)-yl)methoxy)-5-(prop-1-en-2-yl)-5,6-dihydro-4H-[1,4]oxazepino[5,6,7-de]quinazolin-9-yl)-7-fluorobenzo[b]thiophene-3-carbonitrile]	< 500
						N#Cc1c(N)sc2c(F)ccc(-c3c(Cl)c4c5c(nc(OC[C@@]67CCCN6C[C@H](F)C7)nc5c3F)N(C3CCCCC3O)CCO4)c12 (stereo partly drawn) [Compound 602, 2-amino-4-(8-chloro-10-fluoro-2-(((2R,7aS)-2-fluorotetrahydro-1H-pyrrolizin-7a(5H)-yl)methoxy)-4-(2-hydroxycyclohexyl)-5,6-dihydro-4H-[1,4]oxazepino[5,6,7-de]quinazolin-9-yl)-7-fluorobenzo[b]thiophene-3-carbonitrile]	< 500
						C[C@H]1COc2c(Cl)c(-c3ccc(F)c4sc(N)c(C#N)c34)c(F)c3nc(OC[C@@]45CCCN4C[C@H](F)C5)nc(c23)N1C1CCOC1 (stereo partly drawn) [Compound 647, 2-amino-4-((5S)-8-chloro-10-fluoro-2-(((2R,7aS)-2-fluorotetrahydro-1H-pyrrolizin-7a(5H)-yl)methoxy)-5-methyl-4-(tetrahydrofuran-3-yl)-5,6-dihydro-4H-[1,4]oxazepino[5,6,7-de]quinazolin-9-yl)-7-fluorobenzo[b]thiophene-3-carbonitrile]	< 500
						N#Cc1c(N)sc2c(F)ccc(-c3c(Cl)c4c5c(nc(OC[C@@]67CCCN6C[C@H](F)C7)nc5c3F)N(CC3CC3C#N)[C@@H](C3(O)CC3)CO4)c12 (single isomer, unassigned) [Compound 942]	< 500
< 100	< 100	< 100	< 100			N#Cc1c(N)sc2c(F)ccc(-c3c(Cl)c4c5c(nc(OC[C@@]67CCCN6C[C@H](F)C7)nc5c3F)N(CC(F)F)[C@@H](C3(O)CC3)CO4)c12 [Compound 707, 2-amino-4-((R)-8-chloro-4-(2,2-difluoroethyl)-10-fluoro-2-(((2R,7aS)-2-fluorotetrahydro-1H-pyrrolizin-7a(5H)-yl)methoxy)-5-(1-hydroxycyclopropyl)-5,6-dihydro-4H-[1,4]oxazepino[5,6,7-de]quinazolin-9-yl)-7-fluorobenzo[b]thiophene-3-carbonitrile]	< 500
						N#Cc1c(N)sc2c(F)ccc(-c3c(Cl)c4c5c(nc(OC[C@@]67CCCN6C[C@H](F)C7)nc5c3F)N(CC3CC3C#N)[C@@H](C(F)F)CO4)c12 (stereo partly drawn) [Compound 938, 2-amino-4-((5R)-8-chloro-4-((2-cyanocyclopropyl)methyl)-5-(difluoromethyl)-10-fluoro-2-(((2R,7aS)-2-fluorotetrahydro-1H-pyrrolizin-7a(5H)-yl)methoxy)-5,6-dihydro-4H-[1,4]oxazepino[5,6,7-de]quinazolin-9-yl)-7-fluorobenzo[b]thiophene-3-carbonitrile]	< 500
						N#Cc1c(N)sc2c(F)ccc(-c3c(Cl)c4c5c(nc(OC[C@@]67CCCN6C[C@H](F)C7)nc5c3F)N(C3CCOC3)[C@@H](C(F)F)CO4)c12 (stereo partly drawn) [Compound 871, 2-amino-4-((5R)-8-chloro-5-(difluoromethyl)-10-fluoro-2-(((2R,7aS)-2-fluorotetrahydro-1H-pyrrolizin-7a(5H)-yl)methoxy)-4-(tetrahydrofuran-3-yl)-5,6-dihydro-4H-[1,4]oxazepino[5,6,7-de]quinazolin-9-yl)-7-fluorobenzo[b]thiophene-3-carbonitrile]	< 500
						N#Cc1c(N)sc2c(F)ccc(-c3c(Cl)c4c5c(nc(OC[C@@]67CCCN6C[C@H](F)C7)nc5c3F)N(C3CCC5(C3)CN(C(=O)C3CC3)C5)CCO4)c12 (stereo partly drawn) [Compound 650, 2-amino-4-(8-chloro-4-(2-(cyclopropanecarbonyl)-2-azaspiro[3.4]octan-6-yl)-10-fluoro-2-(((2R,7aS)-2-fluorotetrahydro-1H-pyrrolizin-7a(5H)-yl)methoxy)-5,6-dihydro-4H-[1,4]oxazepino[5,6,7-de]quinazolin-9-yl)-7-fluorobenzo[b]thiophene-3-carbonitrile]	< 500
						N#Cc1c(N)sc2c(F)ccc(-c3c(Cl)c4c5c(nc(OC[C@@]67CCCN6C[C@H](F)C7)nc5c3F)N(C3CC(NC=O)C3)CCO4)c12 (stereo partly drawn) [Compound 988, N-(3-(9-(2-amino-3-cyano-7-fluorobenzo[b]thiophen-4-yl)-8-chloro-10-fluoro-2-(((2R,7aS)-2-fluorotetrahydro-1H-pyrrolizin-7a(5H)-yl)methoxy)-5,6-dihydro-4H-[1,4]oxazepino[5,6,7-de]quinazolin-4-yl)cyclobutyl)formamide]	< 500
						C[C@H]1COc2c(Cl)c(-c3ccc(F)c4sc(N)c(C#N)c34)c(F)c3nc(OC[C@@]45CCCN4C[C@H](F)C5)nc(c23)N1CC1CC1C#N (stereo partly drawn) [Compound 731, 2-amino-4-((5S)-8-chloro-4-((2-cyanocyclopropyl)methyl)-10-fluoro-2-(((2R,7aS)-2-fluorotetrahydro-1H-pyrrolizin-7a(5H)-yl)methoxy)-5-methyl-5,6-dihydro-4H-[1,4]oxazepino[5,6,7-de]quinazolin-9-yl)-7-fluorobenzo[b]thiophene-3-carbonitrile]	< 500
< 100	< 100	< 100	< 100			N#Cc1c(N)sc2c(F)ccc(-c3c(Cl)c4c5c(nc(OC[C@@]67CCCN6C[C@H](F)C7)nc5c3F)N([C@@H]3CCNC3)CCO4)c12 [Compound 1124, 2-amino-4-(8-chloro-10-fluoro-2-(((2R,7aS)-2-fluorotetrahydro-1H-pyrrolizin-7a(5H)-yl)methoxy)-4-((R)-pyrrolidin-3-yl)-5,6-dihydro-4H-[1,4]oxazepino[5,6,7-de]quinazolin-9-yl)-7-fluorobenzo[b]thiophene-3-carbonitrile]	< 500
< 100	< 100	< 100	< 100			CNCCN1CCOc2c(Cl)c(-c3ccc(F)c4sc(N)c(C#N)c34)c(F)c3nc(OC[C@@]45CCCN4C[C@H](F)C5)nc1c23 [Compound 961, 2-amino-4-(8-chloro-10-fluoro-2-(((2R,7aS)-2-fluorotetrahydro-1H-pyrrolizin-7a(5H)-yl)methoxy)-4-(2-(methylamino)ethyl)-5,6-dihydro-4H-[1,4]oxazepino[5,6,7-de]quinazolin-9-yl)-7-fluorobenzo[b]thiophene-3-carbonitrile]	< 500
< 100	< 100	< 100	< 100	< 5000	< 5000	N#Cc1c(N)sc2c(F)ccc(-c3c(Cl)c4c5c(nc(OC[C@@]67CCCN6C[C@H](F)C7)nc5c3F)N(C3CC(F)(F)C3)CCO4)c12 [Compound 956, 2-amino-4-(8-chloro-4-(3,3-difluorocyclobutyl)-10-fluoro-2-(((2R,7aS)-2-fluorotetrahydro-1H-pyrrolizin-7a(5H)-yl)methoxy)-5,6-dihydro-4H-[1,4]oxazepino[5,6,7-de]quinazolin-9-yl)-7-fluorobenzo[b]thiophene-3-carbonitrile]	
< 100	< 100	< 100	< 100	< 5000	< 5000	N#Cc1c(N)sc2c(F)ccc(-c3c(Cl)c4c5c(nc(OC[C@@]67CCCN6C[C@H](F)C7)nc5c3F)N(C3CCOCC3)CCO4)c12 [Compound 813, 2-amino-4-(8-chloro-10-fluoro-2-(((2R,7aS)-2-fluorotetrahydro-1H-pyrrolizin-7a(5H)-yl)methoxy)-4-(tetrahydro-2H-pyran-4-yl)-5,6-dihydro-4H-[1,4]oxazepino[5,6,7-de]quinazolin-9-yl)-7-fluorobenzo[b]thiophene-3-carbonitrile]	
< 100	< 100	< 100	< 100	< 5000	< 5000	CC1(O)CC(N2CCOc3c(Cl)c(-c4ccc(F)c5sc(N)c(C#N)c45)c(F)c4nc(OC[C@@]56CCCN5C[C@H](F)C6)nc2c34)C1 (stereo partly drawn) [Compound 708, 2-amino-4-(8-chloro-10-fluoro-2-(((2R,7aS)-2-fluorotetrahydro-1H-pyrrolizin-7a(5H)-yl)methoxy)-4-(3-hydroxy-3-methylcyclobutyl)-5,6-dihydro-4H-[1,4]oxazepino[5,6,7-de]quinazolin-9-yl)-7-fluorobenzo[b]thiophene-3-carbonitrile]	
